Reference: patent publication US20230146675A1, “PYRIMIDO[5,4-d]PYRIMIDINE DERIVATIVES AS ENT INHIBITORS FOR THE TREATMENT OF CANCERS, AND COMBINATION THEREOF WITH ADENOSINE RECEPTOR ANTAGONISTS” (ITEOS BELGIUM SA, priority 2020, published 2023)
Where two headings read alike, the source gives them in different places.

Key:
[1] = biological target: T1, Human phosphodiesterase-3A (Homo sapiens, UniProt Q14432); test: PDE3A (h) assay; assay type: biochemical
T1 construct: host or cells: Sf9 cells
Experimental: The test compound (compound 72), reference compound or water (control) were added to a buffer containing 40 mM Tris/HCl (pH 7.4) and 8 mM MgCl2, 180 nM cAMP and 0.1 μCi [3H]cAMP. Thereafter, the reaction was initiated by addition of the enzyme (about 0.8 U) and the mixture was incubated for 20 min at 22° C. For basal control measurements, the enzyme was omitted from the reaction mixture. Following incubation SPA beads were added. After 30 min at 22° C. under shaking, the amount of [3H]5′AMP was quantified with a scintillation counter (MicroBeta, Perkin Elmer). The results were expressed as a percent inhibition of the control enzyme activity. The standard inhibitory reference compound was papaverine, which was tested in each experiment at several concentrations to obtain an inhibition curve from which its IC50 value was calculated. • Human phosphodiesterase-3A quantified by measuring the formation of 5′AMP from cAMP using a human recombinant enzyme expressed in Sf9 cells
The test compound (compound 72), reference compound or water (control) were added to a buffer containing 40 mM Tris/HCl (pH 7.4) and 8 mM MgCl2, 450 nM cAMP and 0.25 μCi [3H]cAMP. […] After 30 min at 22° C. under shaking, the amount of [3H]5′AMP was quantified with a scintillation counter (Topcount, Packard). The results were expressed as a percent inhibition of the control enzyme activity. […]

[2] = biological target: T2, Human phosphodiesterase-11A (Homo sapiens, UniProt Q9HCR9); test: PDE11A (h) assay; assay type: biochemical
T2 construct: host or cells: Sf9 cells
Experimental: The test compound (compound 72), reference compound or water (control) were added to a buffer containing 40 mM Tris/HCl (pH 7.4) and 8 mM MgCl2, 450 nM cAMP and 0.25 μCi [3H]cAMP. Thereafter, the reaction was initiated by addition of the enzyme (about 4 ng) and the mixture was incubated for 15 min at 22° C. For basal control measurements, the enzyme was omitted from the reaction mixture. Following incubation SPA beads were added. After 30 min at 22° C. under shaking, the amount of [3H]5′AMP was quantified with a scintillation counter (Topcount, Packard). The results were expressed as a percent inhibition of the control enzyme activity. The standard inhibitory reference compound was milrinone, which was tested in each experiment at several concentrations to obtain an inhibition curve from which its IC50 value was calculated. • Human phosphodiesterase-11A quantified by measuring the formation of 5′AMP from cAMP using a human recombinant enzyme expressed in Sf9 cells.
(§1) The test compound (compound 72), reference compound or water (control) were added to a buffer containing 40 mM Tris/HCl (pH 7.4) and 8 mM MgCl2, 450 nM cAMP and 0.25 μCi [3H]cAMP. […] After 30 min at 22° C. under shaking, the amount of [3H]5′AMP was quantified with a scintillation counter (MicroBeta, Perkin Elmer). The results were expressed as a percent inhibition of the control enzyme activity.

[3] = biological target: T3, Human phosphodiesterase-3B (Homo sapiens, UniProt Q13370); test: PDE3B (h) assay; assay type: biochemical
T3 construct: host or cells: Sf9 cells
Experimental: The test compound (compound 72), reference compound or water (control) were added to a buffer containing 40 mM Tris/HCl (pH 7.8), 3 mM MgCl2, 1.4 mM DTT, 0.21% BSA, 200 mM NH4Cl, 2 μM cGMP and 0.05 μCi [3H]cGMP. Thereafter, the reaction was initiated by addition of the enzyme (final amount depending on the efficiency of the isolation) and the mixture was incubated for 60 min at 22° C. For basal control measurements, the enzyme was omitted from the reaction mixture. Following incubation SPA beads were added. After 20 min at 22° C. under shaking, the amount of [3H]5′GMP was quantified with a scintillation counter (Topcount, Packard). The results were expressed as a percent inhibition of the control enzyme activity. The standard inhibitory reference compound was zaprinast, which was tested in each experiment at several concentrations to obtain an inhibition curve from which its IC50 value was calculated. • Human phosphodiesterase-3B quantified by measuring the formation of 5′AMP from cAMP using a human recombinant enzyme expressed in Sf9 cells
as §1, with “The results were expressed as a percent inhibition of the control enzyme activity.” left out

[4] = system: stimulated primary human T cells; test: T cell proliferation assay (rescue of proliferation in presence of 100 uM ATP); assay type: cell-based
Experimental: Purpose. The aim of this study was to determine the potency of equilibrative nucleoside transporter 1 (ENT1) inhibitors to rescue proliferation by stimulated primary human T cells incubated in the presence of 100 uM Adenosine triphosphate (ATP) with: • Condition A: X-VIVO15 • Condition B: X-VIVO15, 2% Human Serum Albumine (HSA) and 0.1% α-1-Acid Glycoprotein (AAG)
Method. Cryopreserved purified human CD3+ T cells were thawed and washed twice with RPMI1640 medium, UltraGlutamine containing 10% hiFBS.
Cells were suspended in PBS containing 10% hiFBS. Cells were stained with CFSE by adding 2 μM solution in PBS, to get a final 1 μM CFSE solution. Cells were incubated while rotating for 5 minutes. Reaction was stopped by adding PBS with 10% FBS and cells were centrifuged for 5 minutes at 1500 rpm.
Cells were resuspended at 1.6×10^6 cells/mL, either in X-VIVO15 medium or in 4% Human Serum Albumin and 0.2% α-1-Acid Glycoprotein. 50 μL of cell suspension (8×10^4 T cells) was added to wells of sterile round-bottom 96-well plates. Cells were activated by adding 50 μL of anti-CD3 anti-CD28 coated microbeads, suspended either in XVIVO-15 medium or in 4% HSA and 0.2% α-1-Acid Glycoprotein, at a ratio of one microbead per two cells.
Serial dilutions of the ENT1 inhibitors were prepared in X-VIVO15 from 10 mM stock solutions in DMSO, and 50 μL was added to the wells.
ATP powder was diluted in X-VIVO15, and 50 μL of this compound was added to the wells to reach a final assay concentration of 100 μM. Final volume of 200 μL.
The experiments were also performed in 384 well plates—all volumes reduced by a factor of 4 ([…]) with a final volume of 50 μL.
Experiments were performed in duplicate. The cells were placed in a 37° C. humidified tissue culture incubator with 5% CO2 for 72 hours for 96 well plates, 96 hours for 384 well plates. After 72 or 96 hours, proliferation was measured determined by CFSE dilution via flow cytometry.
Results. Compounds of the invention have good ENT1 inhibitory properties.

T2 sequence (Q9HCR9 whole entry): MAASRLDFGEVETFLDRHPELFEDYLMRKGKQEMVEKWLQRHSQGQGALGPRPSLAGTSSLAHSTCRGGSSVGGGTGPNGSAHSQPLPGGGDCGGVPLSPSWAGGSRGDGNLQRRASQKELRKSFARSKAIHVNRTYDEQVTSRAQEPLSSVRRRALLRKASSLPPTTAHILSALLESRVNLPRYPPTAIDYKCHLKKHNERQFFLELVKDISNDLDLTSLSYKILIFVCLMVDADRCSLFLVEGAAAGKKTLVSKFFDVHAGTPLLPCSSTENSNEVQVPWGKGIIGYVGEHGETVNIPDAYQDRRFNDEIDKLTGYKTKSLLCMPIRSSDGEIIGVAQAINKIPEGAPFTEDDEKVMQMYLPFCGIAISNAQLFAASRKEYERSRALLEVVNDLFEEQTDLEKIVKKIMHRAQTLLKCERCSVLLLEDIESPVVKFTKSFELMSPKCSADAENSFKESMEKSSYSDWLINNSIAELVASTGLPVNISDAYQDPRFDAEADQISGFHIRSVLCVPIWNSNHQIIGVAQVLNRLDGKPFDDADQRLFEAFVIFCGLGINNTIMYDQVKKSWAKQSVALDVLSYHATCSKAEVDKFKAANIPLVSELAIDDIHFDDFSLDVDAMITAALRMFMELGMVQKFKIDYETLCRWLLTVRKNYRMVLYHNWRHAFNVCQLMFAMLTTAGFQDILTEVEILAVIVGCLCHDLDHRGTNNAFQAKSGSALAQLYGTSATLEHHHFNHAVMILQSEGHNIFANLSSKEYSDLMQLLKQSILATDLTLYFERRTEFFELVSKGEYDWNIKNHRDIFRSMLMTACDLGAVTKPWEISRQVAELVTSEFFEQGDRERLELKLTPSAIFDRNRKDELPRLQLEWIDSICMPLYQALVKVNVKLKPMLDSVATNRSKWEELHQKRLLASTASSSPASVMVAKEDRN
T1 sequence (Q14432 whole entry): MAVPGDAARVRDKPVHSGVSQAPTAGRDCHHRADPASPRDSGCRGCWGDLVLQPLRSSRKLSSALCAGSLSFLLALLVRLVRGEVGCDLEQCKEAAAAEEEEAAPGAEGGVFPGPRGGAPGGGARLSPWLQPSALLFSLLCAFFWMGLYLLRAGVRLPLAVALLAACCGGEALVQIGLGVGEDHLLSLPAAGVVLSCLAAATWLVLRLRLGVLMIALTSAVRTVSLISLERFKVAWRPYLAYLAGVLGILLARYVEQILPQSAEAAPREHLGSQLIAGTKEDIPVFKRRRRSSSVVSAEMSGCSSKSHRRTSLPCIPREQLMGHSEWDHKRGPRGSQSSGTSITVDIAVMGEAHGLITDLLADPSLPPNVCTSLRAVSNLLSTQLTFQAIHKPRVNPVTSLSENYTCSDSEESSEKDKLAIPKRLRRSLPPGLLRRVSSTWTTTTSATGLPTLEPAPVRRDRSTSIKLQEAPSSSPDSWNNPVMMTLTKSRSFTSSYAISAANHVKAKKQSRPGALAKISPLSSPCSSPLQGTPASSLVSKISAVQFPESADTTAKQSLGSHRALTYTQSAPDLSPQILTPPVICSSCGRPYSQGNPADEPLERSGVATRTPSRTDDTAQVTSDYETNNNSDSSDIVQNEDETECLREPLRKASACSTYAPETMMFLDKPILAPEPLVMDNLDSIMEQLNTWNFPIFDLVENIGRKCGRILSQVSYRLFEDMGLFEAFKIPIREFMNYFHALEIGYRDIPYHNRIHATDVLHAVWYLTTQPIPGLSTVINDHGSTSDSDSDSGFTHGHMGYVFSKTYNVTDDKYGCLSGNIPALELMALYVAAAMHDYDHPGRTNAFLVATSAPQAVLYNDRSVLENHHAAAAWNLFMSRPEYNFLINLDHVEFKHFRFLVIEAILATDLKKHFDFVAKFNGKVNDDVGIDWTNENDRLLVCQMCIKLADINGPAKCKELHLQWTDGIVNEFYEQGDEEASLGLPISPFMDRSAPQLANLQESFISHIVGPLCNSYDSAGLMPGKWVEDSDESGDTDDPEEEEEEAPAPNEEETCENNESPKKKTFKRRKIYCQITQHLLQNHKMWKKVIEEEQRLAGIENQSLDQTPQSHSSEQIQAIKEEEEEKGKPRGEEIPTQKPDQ
T3 sequence (Q13370 whole entry): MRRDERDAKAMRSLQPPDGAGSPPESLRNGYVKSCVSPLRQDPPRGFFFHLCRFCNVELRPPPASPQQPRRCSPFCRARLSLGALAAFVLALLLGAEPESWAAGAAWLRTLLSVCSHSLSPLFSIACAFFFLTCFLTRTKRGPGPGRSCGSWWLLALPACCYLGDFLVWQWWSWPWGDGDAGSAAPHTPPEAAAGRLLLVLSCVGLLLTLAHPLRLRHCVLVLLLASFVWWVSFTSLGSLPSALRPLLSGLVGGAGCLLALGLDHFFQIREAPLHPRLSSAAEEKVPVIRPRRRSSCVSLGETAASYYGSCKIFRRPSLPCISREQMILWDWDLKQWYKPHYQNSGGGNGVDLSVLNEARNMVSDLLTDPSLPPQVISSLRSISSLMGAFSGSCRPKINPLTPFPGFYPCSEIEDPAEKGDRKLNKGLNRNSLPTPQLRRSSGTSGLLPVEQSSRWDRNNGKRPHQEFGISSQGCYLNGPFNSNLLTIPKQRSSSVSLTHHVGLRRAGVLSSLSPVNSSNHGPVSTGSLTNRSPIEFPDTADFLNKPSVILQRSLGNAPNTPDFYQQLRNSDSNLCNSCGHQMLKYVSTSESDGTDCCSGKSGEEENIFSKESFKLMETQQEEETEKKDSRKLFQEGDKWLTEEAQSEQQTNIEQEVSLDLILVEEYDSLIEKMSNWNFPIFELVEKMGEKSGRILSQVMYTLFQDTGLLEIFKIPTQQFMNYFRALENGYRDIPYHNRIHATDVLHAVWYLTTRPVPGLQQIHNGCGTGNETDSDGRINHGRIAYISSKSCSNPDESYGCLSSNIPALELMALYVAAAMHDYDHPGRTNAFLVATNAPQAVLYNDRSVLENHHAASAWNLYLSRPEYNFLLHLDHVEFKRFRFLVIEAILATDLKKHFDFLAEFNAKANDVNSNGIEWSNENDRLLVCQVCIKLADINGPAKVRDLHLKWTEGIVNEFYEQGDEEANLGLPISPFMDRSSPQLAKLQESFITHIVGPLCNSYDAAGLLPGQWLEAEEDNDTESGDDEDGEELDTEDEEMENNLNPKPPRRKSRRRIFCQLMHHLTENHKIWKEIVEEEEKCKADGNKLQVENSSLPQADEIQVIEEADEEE

- IC50 [1]: > 10 µM
- IC50 [2]: > 10 µM
- potency for PDE11A as compared to dipyridamole [2]: reduced as compared to dipyridamole
- IC50 [3]: > 10 µM
SMILES: COCCN(CCOC)c1nc(N2CCN(C)C(=O)C2)c2nc(N(CCOC)CCOC)nc(N3CCC(OC)CC3)c2n1 [Compound 72, 4-(2,6-bis(bis(2-methoxyethyl)amino)-8-(4-methoxypiperidin-1-yl)pyrimido[5,4-d]pyrimidin-4-yl)-1-methylpiperazin-2-one]
- IC50 ([4]; Condition A: X-VIVO15, read-out: TCell proliferation (Condition A) IC50): 0.1 to 0.5 µM
- IC50 ([4]; Condition B: X-VIVO15, 2% HSA and 0.1% AAG, read-out: TCell proliferation (Condition B) IC50): 0.1 to 0.5 µM
